Non-standard residues stand in square brackets, D forms with d. Residues, ends and D or L forms follow the SMILES beside them. *: point of attachment. Cbz = O=C(OCc1ccccc1)*
How the values were obtained:
[1] = target: Cathepsin S (Homo sapiens, UniProt P25774); settings: cited from earlier work
[2] = target: Cathepsin L (Homo sapiens, UniProt P07711); settings: cited from earlier work
[3] = target: Cathepsin C (Homo sapiens, UniProt P53634); settings: at 1 × 10^−6 M; cited from earlier work
[4] = target: Cathepsin B (Homo sapiens, UniProt P07858); settings: cited from earlier work
[5] = target: T1, Cathepsin K (Homo sapiens, UniProt P43235); settings: cited from earlier work
T1 sequence (P43235 115-329): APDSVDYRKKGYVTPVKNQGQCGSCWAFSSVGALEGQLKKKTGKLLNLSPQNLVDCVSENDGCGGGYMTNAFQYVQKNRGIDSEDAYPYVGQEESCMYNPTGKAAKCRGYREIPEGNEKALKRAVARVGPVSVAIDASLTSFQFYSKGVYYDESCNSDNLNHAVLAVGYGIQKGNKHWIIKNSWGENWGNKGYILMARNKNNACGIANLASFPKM

[6] = target: T2, cathepsin K (Mus musculus, UniProt P55097); assay: Cysteine protease active site labeling in mouse peritoneal macrophages: cathepsin K; assay type: cell-based
T2 construct: endogenous in cells; host or cells: thioglycolate-elicited mouse peritoneal macrophages
T2 sequence (P55097 115-329): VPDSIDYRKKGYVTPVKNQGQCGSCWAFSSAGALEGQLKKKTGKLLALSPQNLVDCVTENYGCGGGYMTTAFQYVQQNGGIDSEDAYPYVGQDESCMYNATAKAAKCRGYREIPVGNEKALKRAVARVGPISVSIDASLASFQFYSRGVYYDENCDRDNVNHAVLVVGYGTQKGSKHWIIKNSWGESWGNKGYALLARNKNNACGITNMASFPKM
Description: (§1) FIG. 1. Cysteine protease inhibition profile by synthetic inhibitors in mouse peritoneal macrophages. [^125I]-Z-Tyr-Ala-CHN2-labeled mouse peritoneal macrophages were lysed and separated onto 12% SDS-PAGE to visualize labeled active cathepsins. Doses and inhibitors used were all indicated.
(§2) Mouse peritoneal macrophages were generated by injecting mice with thioglycolate as described in Shi et al. (2000) J. Exp. Med. 191:[…]. After 3-4 days of incubation, peritoneal microphages were washed out using Tris-EDTA buffers containing 6 mM EDTA (pH 8.0). Cells were then seeded onto 24-well plates in DMEM with 10% FBS till complete spread. After cells were attached to the plates, different doses of inhibitors were added. After 2-3 hours of incubation, cells were labeled with [^125I]-Z-Tyr-Ala-CHN2 overnight at 37° C. to detect intracellular active cysteine proteases. Cells were lysed into 1× reducing protein sample buffer and separated onto 12% SDS-PAGE.
(§3) First, the synthetic small molecule compounds were tested for their selectivity toward different forms of cathepsin. Mouse peritoneal macrophages were cultured in the presence of selective inhibitors and cysteine protease active site labeling probe [^125I]-Z-Tyr-Ala-CHN2 (Sukhova et al., supra). […] In contrast, other inhibitors used had no effect on cathepsin B activity. […] Therefore, these inhibitors can be utilized to test if the aforementioned cathepsins play roles in the breakdown of insulin receptor (IR) or IR turnover.

[7] = target: T3, cathepsin B (Mus musculus, UniProt P10605); assay: Cysteine protease active site labeling in mouse peritoneal macrophages: cathepsin B; assay type: cell-based
T3 construct: endogenous in cells; host or cells: thioglycolate-elicited mouse peritoneal macrophages
Description: as §1, §2, §3

[8] = target: T4, cathepsin L (Mus musculus, UniProt P06797); assay: Cysteine protease active site labeling in mouse peritoneal macrophages: cathepsin L; assay type: cell-based
T4 construct: endogenous in cells; host or cells: thioglycolate-elicited mouse peritoneal macrophages
Description: as §1, §2, §3

[9] = tested on: insulin receptor β subunit; assay: Insulin receptor turnover in human preadipocytes, Western blot; assay type: cell-based; settings: for IR turnover: human preadipocytes induced to adipocytes
Description: FIG. 2. […] Human preadipocytes were incubated with and without inhibitors indicated at different doses, lysed, separated onto 7% SDS-PAGE, and probed with goat anti-human insulin receptor β-subunit polyclonal antibodies. Both mature β subunit and its precursor were indicated.
(§4) Human preadipocytes were initially cultured in MSCGM medium (BioWhitaker) at 37° C. and 5% CO2 for 7 to 12 days with 3-4 changes of media till complete confluence. Non-induced cells were kept in adipogenesis maintenance media containing 0.01 mg/ml of insulin, 0.05 units/ml of penicillin, 0.05 μg/ml of streptomycin, and 10% fetal bovine serum. To induce adipogenesis, complete confluent cells were cultured in adipogenesis induction medium containing 1 μM dexamethasone, 0.2 mM indomethacin, 0.01 mg/ml insulin, 0.5 mM 3-isobutyl-1-methyl-xanthine, 0.05 units/ml of penicillin, 0.05 μg/ml of streptomycin, and 10% fetal bovine serum in the presence and absence of protease inhibitors for 3 days followed by three days of culture in maintenance media. After three cycles of induction and maintenance, cells were cultured in maintenance media for additional 7 days with two changes of fresh media.
(§5) After differentiation, cells were collected, and lysed into 1×RIPA buffer. Protein concentrations were determined using Bio-Rad Dc protein assay system according to the manufacturer (Bio-Rad, Hercules, Calif.). Equal amount of proteins were separated on 7% SDS-PAGE for detecting IR and IGF-1R, 12% SDS-PAGE for detecting cathepsins S, K, and L antigens. Both IR and IGF-1R primary polyclonal antibodies were raised from goat and all cathepsin antibodies were polyclonal antibodies raised from rabbit. The corresponding HRP-conjugated secondary antibodies were used for detections.
To test which cathepsin is involved in the IR turnover, human preadipocytes (BioWhittaker, Walkersville, Md.) were induced to become adipocytes in the presence and absence of inhibitors. Differentiated adipocytes expressed more IR than controls as previously reported. Pederson et al. (2000) Biochem. Biophys. Res. Commun. 276:162-168. Cathepsin B inhibitor (CA 074, 10 μM) and catepsin S inhibitor (CLIK 060, 2 μM) had no effect on either IR turnover or differentiation (FIGS. 2). […] The same is true when the blot was tested with insulin like growth factor I receptor (IGF-IR) antibodies (FIG. 3).

[10] = tested on: human preadipocytes; assay: Human preadipocyte adipogenesis, oil-red staining; assay type: cell-based; settings: for effect on adipogenesis / inhibition of adipogenesis / differentiation: human preadipocytes; for inhibition of adipogenesis / differentiation: 10 μM
Description: FIG. 6. Oil-red staining of human preadipocytes and adipocytes.
as §4
This hypothesis is further confirmed by oil-red staining of CLIK 148 or 195 treated preadipocytes (FIG. 6). In addition, inhibition of adiogenesis by these two inhibitors is dose dependent. Less than 50% of adipogenesis was blocked by 1 μM of such inhibitors. […] In contrast, 1 μM of CLIK 060, 1 or 10 μM of CA 074 had no effect on adipogenesis (data not shown). Therefore, these observations indicate that cathepsin L appears to play a more critical role than cathepsins S and K in adipogenesis by controlling insulin/IR complex turnover.

[11] = target: cathepsin S (Mus musculus, UniProt O70370); assay: Cysteine protease active site labeling in mouse peritoneal macrophages: cathepsin S; assay type: cell-based; design: endogenous in cells; host or cells: thioglycolate-elicited mouse peritoneal macrophages
Description: as §1, §2
First, the synthetic small molecule compounds were tested for their selectivity toward different forms of cathepsin. Mouse peritoneal macrophages were cultured in the presence of selective inhibitors and cysteine protease active site labeling probe [^125I]-Z-Tyr-Ala-CHN2 (Sukhova et al., supra). […] In contrast, other inhibitors used had no effect on cathepsin B activity. […]

[12] = tested on: insulin like growth factor I receptor (IGF-IR); assay: IGF-IR levels in human preadipocytes, Western blot; assay type: cell-based
Description: FIG. 3. […] Cells were treated as in FIG. 2. Western blot analysis was performed using goat anti-human IGF-1R polyclonal antibodies.
as §4, §5
To test which cathepsin is involved in the IR turnover, human preadipocytes (BioWhittaker, Walkersville, Md.) were induced to become adipocytes in the presence and absence of inhibitors. Differentiated adipocytes expressed more IR than controls as previously reported. Pederson et al. (2000) Biochem. Biophys. Res. Commun. 276:162-168. Cathepsin B inhibitor (CA 074, 10 μM) and catepsin S inhibitor (CLIK 060, 2 μM) had no effect on either IR turnover or differentiation (FIGS. 2). […]

[13] = tested on: peroxisome proliferator-activated receptor-γ (PPAR-γ); assay: PPAR-γ levels in human preadipocytes, Western blot; assay type: cell-based; settings: human preadipocytes differentiated with inhibitor, FIG. 5
Description: FIG. 5. Inhibition of cathepsin L blocked the expression of PPAR-γ. Human preadipocytes were used and Western blot analysis was performed as in FIG. 4 instead of using mouse anti-human PPAR-γ monoclonal antibodies as the primary antibodies.
as §4
(§6) To evaluate the cell differentiation levels affected by aforementioned inhibitors, the levels of transcription factors CCAAT/enhancer-binding protein-α (C/EBP-α) as well as peroxisome proliferator-activated receptor-γ (PPAR-γ) from cells treated with and without inhibitors were measured. Both C/EBP-α and PPAR-γ are important adipocyte determination factors. Wu et al. (1999) Mol. Cell. 3:151-158; Tanaka et al. (1997) EMBO J. 16:7432-7443; and Tontonoz et al. (1994) Cell 79:1147-1156.

[14] = tested on: CCAAT/enhancer-binding protein-α (C/EBP-α); assay: C/EBP-α levels in human preadipocytes, Western blot; assay type: cell-based; settings: human preadipocytes differentiated with inhibitor, FIG. 4
Description: FIG. 4. Inhibition of cathepsin L blocked the expression of CCAAT/enhancer-binding protein. Human preadipocytes were differentiated as in FIG. 2. A 10% gel was used to perform Western blot analysis using goat anti-human C/EBP-α polyclonal antibodies and the blot was detected using the corresponding HRP-conjugated secondary antibodies.
as §4, §6

Sequence of Cathepsin L (P07711 114-333, species assumed): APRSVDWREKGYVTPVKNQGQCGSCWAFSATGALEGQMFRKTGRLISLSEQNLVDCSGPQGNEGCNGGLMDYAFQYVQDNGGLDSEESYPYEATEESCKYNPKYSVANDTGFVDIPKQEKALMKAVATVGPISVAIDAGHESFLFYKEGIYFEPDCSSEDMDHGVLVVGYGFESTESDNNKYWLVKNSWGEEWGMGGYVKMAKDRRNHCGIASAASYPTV
T4 sequence (P06797 114-334): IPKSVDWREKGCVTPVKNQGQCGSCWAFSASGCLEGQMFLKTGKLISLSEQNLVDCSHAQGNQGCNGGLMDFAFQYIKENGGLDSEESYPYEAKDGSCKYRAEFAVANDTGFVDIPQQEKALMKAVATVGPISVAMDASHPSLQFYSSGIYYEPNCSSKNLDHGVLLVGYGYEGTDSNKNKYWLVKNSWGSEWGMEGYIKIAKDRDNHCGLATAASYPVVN
Sequence of Cathepsin S (P25774 115-331, species assumed): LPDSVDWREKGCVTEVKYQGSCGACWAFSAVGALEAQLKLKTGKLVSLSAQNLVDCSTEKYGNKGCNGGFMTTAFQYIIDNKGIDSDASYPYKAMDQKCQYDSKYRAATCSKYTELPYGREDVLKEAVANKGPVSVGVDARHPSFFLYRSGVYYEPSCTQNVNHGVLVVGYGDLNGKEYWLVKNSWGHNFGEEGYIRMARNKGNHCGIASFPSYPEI
T3 sequence (P10605 80-333 limits assumed): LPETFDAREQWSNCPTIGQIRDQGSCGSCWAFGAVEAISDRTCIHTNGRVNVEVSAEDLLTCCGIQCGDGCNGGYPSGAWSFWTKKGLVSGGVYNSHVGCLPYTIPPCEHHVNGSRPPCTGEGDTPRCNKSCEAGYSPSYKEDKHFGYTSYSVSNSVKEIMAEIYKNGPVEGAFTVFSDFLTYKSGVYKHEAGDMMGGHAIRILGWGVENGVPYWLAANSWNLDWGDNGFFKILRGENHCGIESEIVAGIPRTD
Sequence of Cathepsin C (P53634 25-463, species assumed): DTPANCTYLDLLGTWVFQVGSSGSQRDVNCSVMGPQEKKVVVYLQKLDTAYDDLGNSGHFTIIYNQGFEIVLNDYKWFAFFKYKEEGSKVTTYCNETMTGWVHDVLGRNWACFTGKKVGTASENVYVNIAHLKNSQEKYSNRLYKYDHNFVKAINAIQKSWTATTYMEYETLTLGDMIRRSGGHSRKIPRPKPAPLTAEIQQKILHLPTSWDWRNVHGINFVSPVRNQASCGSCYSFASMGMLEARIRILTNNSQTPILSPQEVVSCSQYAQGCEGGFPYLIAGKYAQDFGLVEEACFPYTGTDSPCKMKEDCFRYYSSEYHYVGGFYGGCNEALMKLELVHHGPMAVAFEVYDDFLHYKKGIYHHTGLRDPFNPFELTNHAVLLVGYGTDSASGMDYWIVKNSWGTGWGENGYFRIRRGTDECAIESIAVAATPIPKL

## CC(C)C[C@H](NC(=O)N1CCOCC1)C(=O)N[C@H](/C=C/S(=O)(=O)c1ccccc1)CCc1ccccc1
[1]
  Ki: 5 nM

## CN(C)C(=O)[C@H](Cc1ccccc1)NC(=O)C1O[C@@H]1C(=O)NCCc1ccccn1 (stereo partly drawn)
[2]; at 1 × 10^−6 M
  % of Inhibition, Cathepsin L: 100%
[3]
  % of Inhibition, Cathepsin C: 0%
[1]; at 1 × 10^−6 M
  % of Inhibition, Cathepsin S: 30%
[4]; at 1 × 10^−6 M
  % of Inhibition, Cathepsin B: 0%
[5]; at 1 × 10^−6 M
  % of Inhibition, Cathepsin K: 0%

## CCCNC(=O)[C@H]1O[C@@H]1C(=O)N[C@H](C(=O)N1CCC[C@H]1C(=O)O)[C@@H](C)CC [CA 074]
[6]; 2 μM
  cathepsin K activity (active site labeling): remain intact
[7]; 2 μM
  cathepsin B activity (active site labeling): completely blocked
[8]; 2 μM, mouse peritoneal macrophages
  cathepsin L activity (active site labeling): remain intact
[9]; 10 μM
  IR turnover: no effect
[10]; 1 μM
  effect on adipogenesis: no effect
[10]
  inhibition of adipogenesis / differentiation: no effect
[10]; 10-20 μM
  effect on adipogenesis: no effect
[11]; 2 μM
  cathepsin S activity (active site labeling): remain intact

## O=C(N[C@@H](Cc1ccc2ccccc2c1)C(=O)N[C@H]1CCCN(S(=O)(=O)c2ccccn2)CC1=O)c1cccc2cccnc12
[5]
  Ki: 420 to 503 nM

## N#CN1CC(NC(=O)CC2CCCCC2)C1
[2]
  IC50: 6 nM
[4]
  IC50: 150 nM
[5]
  IC50: 5 nM

## CCOC(=O)[C@H]1O[C@@H]1C(=O)N[C@@H](CC(C)C)C(=O)NCCC(C)C [E64d]
[12]; 20 μM
  levels of IGF-IR β subunit and its precursor (the same as for IR): increased levels
[9]; 20 μM, human preadipocytes
  levels of 95 kDa IR β subunit and its precursor: increased levels
[13]
  accumulation of 50 kDa PPAR-γ: blocking the accumulation
[14]
  accumulation of 50 kDa C/EBP-α: blocking the accumulation

## O=C[C@@H](Cc1ccc(O)cc1)NC(=O)[C@H](Cc1ccccc1)NC(=O)OCc1ccccc1 (Cbz-Phe-[dY]-aldehyde)
[2]
  Cathepsin L selectivity, in words: Cathepsin L. Selective (Woo et al. Bioorg. Med. Chem. 5, 1501, 1995)

## CC(C)CC(NC(=O)[C@@H](Cc1ccccc1)NC(=O)OCc1ccccc1)C(=O)C=O (stereo partly drawn)
[1]
  Ki: 0.185 nM
[4]
  Ki: 0.76 nM

## CC(C)CC(NC(=O)[C@H](CC(C)C)NC(=O)OCc1ccccc1)C(=O)COCc1ccc(-c2ccccc2)cc1 (stereo partly drawn)
[2]
  Ki: 63 nM
[4]
  Ki: 1310 nM
[5]
  Ki: 22 nM

## CN(C)C(=O)[C@H](Cc1ccccc1)NC(=O)C1OC1C(=O)NC(CCCCN)C(=O)Nc1ccccc1.Cl (stereo in doubt) [CLIK 060, N-{L-3-trans[(1-phenylcarbamoyl-5-amino)pentylcarbamoyl]oxirane-2-carbonyl}-L-phenylalaninoldimethylamide hydrochloride]
[8]; 2-10 μM, mouse peritoneal macrophages
  cathepsin L activity (active site labeling): affected at some level
[8]; 10-15 μM, FIG. 1
  cathepsin L activity (active site labeling): blocked
[9]; 2 μM
  IR turnover: no effect
[9]; 10-15 μM, human preadipocytes
  IR accumulation: IR accumulation
[10]; 1 μM
  effect on adipogenesis: no effect
[10]; 2 μM
  differentiation of human preadipocytes: no effect
[10]; 10-15 μM (higher concentrations)
  effect on adipogenesis: adipogenesis inhibition
[11]; 2-10 μM
  cathepsin S activity (active site labeling): significantly inhibited

## N#CN1CCC(NC(=O)Cc2ccccc2)C1 (stereo not drawn)
[2]
  IC50: 54 nM
[4]
  IC50: 200 nM
[5]
  IC50: 40 nM

## O=C(N[C@@H](Cc1ccc2ccccc2c1)C(=O)N[C@H]1CCCN(S(=O)(=O)c2ccccn2)CC1=O)c1cccc2ccccc12
[5]
  Ki: 420 to 503 nM

## CC(C)C[C@H](NC(=O)[C@H](CC(C)C)NC(=O)OCc1ccccc1)C(=O)COCc1ccc(-c2ccccc2)cc1
[2]
  Ki: 63 nM
[4]
  Ki: 1310 nM
[5]
  Ki: 22 nM

## O=C[C@H](Cc1c[nH]c2ccccc12)NC(=O)C(Cc1ccccc1)Cc1ccccc1
[2]
  IC50: < 32 nM
[4]
  IC50: > 1000 nM

## CN(C)C(=O)[C@H](Cc1ccccc1)NC(=O)[C@H]1O[C@@H]1C(=O)N[C@@H](Cc1ccccc1)C(=O)N(C)C (relative stereo) [CLIK 195, L-(+)-(2S, 3S)-Bis-(Na-amino-L-phenylalaninedimethylamide)-trans-epoxysuccinamide]
[6]; 10 μM
  cathepsin K activity (active site labeling): not
[7]; 10 μM
  cathepsin B activity (active site labeling): not
[8]; 10 μM, mouse peritoneal macrophages
  cathepsin L activity (active site labeling): completely inhibited
[12]; 10 μM
  levels of IGF-IR β subunit and its precursor (the same as for IR): increased levels
[9]; 10 μM, human preadipocytes
  levels of 95 kDa IR β subunit and its precursor: increased levels
[10]
  inhibition of adipogenesis / differentiation: complete inhibition
[10]; listed as 195
  inhibition of adipogenesis / differentiation: completely blocked
[13]
  accumulation of 50 kDa PPAR-γ: blocking the accumulation
[14]
  accumulation of 50 kDa C/EBP-α: blocking the accumulation
